In the supplement of paper PMC10307832:

How the values were obtained:
Experiment in all cases: relative viability (nuclei count vs DMSO), 5 days (fraction); higher = more cells survive
[1] = compound: COC1=CC=C(C=C1)COC2=C(C=C(C=C2)CC3=CN=C(N=C3N)N)OC [GW-2580] + CC(=O)c1c(C)c2cnc(Nc3ccc(N4CCNCC4)cn3)nc2n(C2CCCC2)c1=O [Palbociclib] (partner 0.5 µM)
How it was run: (§1)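 Five library-drug doses in √10 steps were combined with a fixed anchor-drug dose, or a single drug was given alone, by pin tool to lung cancer cell lines in 1536-well plates the day after seeding. Nuclei were stained and counted after 5 days. Relative viability is the nuclei count in treated wells over that in vehicle wells, taken as the median of duplicate plates.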

[2] = compound: COC1=CC=C(C=C1)COC2=C(C=C(C=C2)CC3=CN=C(N=C3N)N)OC [GW-2580] + Cc1nc(Nc2ncc(C(=O)Nc3c(C)cccc3Cl)s2)cc(N2CCN(CCO)CC2)n1 [Dasatinib] (partner 0.075 µM)
How it was run: as §1

[3] = compound: Cc1cnc(Nc2ccc(OCCN3CCCC3)cc2)nc1Nc1cccc(S(=O)(=O)NC(C)(C)C)c1 [Fedratinib] + CC(=O)c1c(C)c2cnc(Nc3ccc(N4CCNCC4)cn3)nc2n(C2CCCC2)c1=O [Palbociclib] (partner 0.5 µM)
How it was run: as §1

[4] = compound: Cc1cnc(Nc2ccc(OCCN3CCCC3)cc2)nc1Nc1cccc(S(=O)(=O)NC(C)(C)C)c1 [Fedratinib] + COc1cc2c(Oc3ccc(NC(=O)C4(C(=O)Nc5ccc(F)cc5)CC4)cc3F)ccnc2cc1OCCCN1CCOCC1 [Foretinib] (partner 0.25 µM)
How it was run: as §1

[5] = compound: Cc1cnc(Nc2ccc(OCCN3CCCC3)cc2)nc1Nc1cccc(S(=O)(=O)NC(C)(C)C)c1 [Fedratinib] + CS(=O)(=O)N1CCN(Cc2cc3nc(-c4cccc5[nH]ncc45)nc(N4CCOCC4)c3s2)CC1 [Pictilisib] (partner 1 µM)
How it was run: as §1

Row | Cell Line | relative viability ([1]; first compound 0.08 µM) | relative viability ([1]; first compound 0.8 µM) | relative viability ([1]; first compound 2.53 µM) | relative viability ([1]; first compound 8 µM) | relative viability ([2]; first compound 0.08 µM) | relative viability ([2]; first compound 0.8 µM) | relative viability ([2]; first compound 2.53 µM) | relative viability ([2]; first compound 8 µM) | relative viability ([3]; first compound 0.1 µM) | relative viability ([3]; first compound 0.3162 µM) | relative viability ([3]; first compound 1 µM) | relative viability ([4]; first compound 0.1 µM) | relative viability ([4]; first compound 0.3162 µM) | relative viability ([4]; first compound 1 µM) | relative viability ([5]; first compound 0.1 µM) | relative viability ([5]; first compound 0.3162 µM) | relative viability ([5]; first compound 1 µM)
1 | BEN | 0.491 | 0.507 | 0.471 | 0.491 | 0.267 | 0.397 | 0.222 | 0.308 | 0.473 | 0.429 | 0.471 | 0.685 | 0.683 | 0.472 | 0.477 | 0.575 | 0.498
2 | NCI-H1666 | 0.647 | 0.65 | 0.649 | 0.64 | 0.874 | 0.901 | 0.758 | 0.755 | 0.636 | 0.657 | 0.629 | 0.927 | 0.991 | 0.962 | 0.409 | 0.38 | 0.224
3 | LC-2-ad | 0.578 | 0.549 | 0.491 | 0.45 | 0.715 | 0.771 | 0.737 | 0.55 | 0.535 | 0.486 | 0.476 | 1.02 | 1.01 | 0.784 | 0.422 | 0.531 | 0.115
4 | SK-LU-1 | 0.414 | 0.459 | 0.29 | 0.373 | 0.178 | 0.207 | 0.149 | 0.167 | 0.393 | 0.317 | 0.34 | 0.819 | 0.78 | 0.504 | 0.514 | 0.489 | 0.285
5 | ChaGo-K-1 | 0.927 | 0.943 | 0.88 | 0.895 | 0.663 | 0.552 | 0.605 | 0.587 | 0.966 | 0.814 | 0.961 | 0.811 | 0.923 | 0.899 | 0.487 | 1 | 0.289
6 | COR-L 105 | 0.434 | 0.398 | 0.413 | 0.39 | 0.314 | 0.373 | 0.28 | 0.342 | 0.393 | 0.41 | 0.405 | 0.866 | 1.03 | 0.676 | 0.364 | 0.471 | 0.284
7 | Calu-6 | – | – | – | – | – | – | – | – | – | – | – | 0.855 | 0.857 | 0.784 | 0.845 | 0.866 | 0.736
8 | NCI-H1648 | 0.293 | – | 0.274 | 0.239 | – | – | – | – | 0.257 | 0.262 | 0.25 | – | – | – | – | – | –
9 | EBC-1 | – | – | – | – | – | – | – | – | – | – | – | 0.112 | 0.103 | 0.1 | 0.27 | 0.33 | 0.251
10 | NCI-H596 | – | – | – | – | 0.625 | 0.543 | 0.7 | 0.688 | – | – | – | 0.881 | 0.78 | 0.762 | 0.342 | 0.388 | 0.366
11 | NCI-H1299 | – | – | – | – | – | – | – | – | – | – | – | 1.06 | 1.09 | 1.07 | 0.629 | 0.688 | 0.529
12 | NCI-H2342 | 0.547 | 0.543 | 0.511 | 0.53 | 0.329 | 0.327 | 0.297 | 0.332 | 0.531 | 0.606 | 0.593 | 1.05 | 1.07 | 0.989 | – | – | –
13 | IA-LM | – | – | – | – | – | – | – | – | – | – | – | 1.15 | 1.23 | 1.12 | 0.26 | 0.288 | 0.199
